From patent US10513512B2, “Flavanone derivatives, and preparation method and use thereof” (Xuanwu Hospital of Capital Medical University, priority 2016, dated 2019) come the findings set out here.

Assay [1] concerns the target dopamine D2 receptor (DRD2) (Homo sapiens (Human), UniProt P14416). Description: Dopamine D2 receptor antagonism, Fluo-4 calcium fluorescence in HEK293 cells stably expressing DRD2/Gα16. The settings on record: 50 nM Dopamine as agonist, read-out: IC50 for inhibiting dopamine D2 receptor. It is filed as cell-based. From the text:
Objective: positive symptoms (hallucination, delusion, etc.) in patients with schizophrenia may be associated with dopamine (DA) hyperfunction in subcortical limbic system, and antipsychotic drugs, which block Dopamine D2 Receptor (DRD2), can effectively control positive symptoms of schizophrenia. By establishing a cell line co-transfected with DRD2 and Gα16, the activated DRD2 can activate Gα16 protein, thereby activating phospholipase C (PLC) to produce inositol 1,4,5-triphosphate (IP3) and diacylglycerol (DAG), wherein IP3 can bind to the IP3 receptor on endoplasmic reticulum and mitochondria, resulting in intracellular calcium release. Therefore, the determination of a change in intracellular calcium can be used as a method for detecting the activated state of DRD2.
Fluo-4/AM was a calcium fluorescent probe indicator for determining calcium ions. In this experiment, a Fluo-4 fluorescence method was used to determine the level of activated Gα protein by measuring the fluorescence intensity excited by intracellular calcium ions. If a compound could activate DRD2, the calcium influx was enhanced; on the contrary, if a compound could antagonize DRD2, the calcium influx was reduced.
Methods: HEK293 cells stably expressing DRD2/Gα16 (a human embryonic kidney cell line, derived from Shanghai Institute of Materia Medica, Chinese Academy of Sciences) were seeded in a 96-well plate (the culture solution was 90% DMEM+10% fetal bovine serum), and incubated overnight. The culture solution was pipetted off, and a freshly prepared dye Fluo-4/AM was added. The cells were incubated in a 37° C. incubator for 40 min. The dye was completely pipetted off. After the cells were washed with a freshly prepared calcium buffer, a calcium buffer (50 μl) dissolved with a test drug was added. FlexStation II instrument was used in the determination. A calcium buffer (25 μl) dissolved with a known agonist was added automatically by the instrument at the fifteenth second, and the fluorescence value at 525 nm (an excitation wavelength of 485 nm) was finally read. […] IC50 value was calculated by GraphPad Prism.

For assay [2], the system named is MK-801-induced hyperlocomotion schizophrenia model in mice. Description: MK-801-induced hyperlocomotion schizophrenia model in mice (open-field test). As to conditions: within 210 min; for Distance of central district activity / Total distance traveled: 50 mg/kg intragastric, Balb/c mice, MK-801 0.6 mg/kg i.p., Mean ± SE, n = 10; for distance of center square activity, effect in words / total distance of spontaneous activity, effect in words: intragastrical administration, MK-801 model mice. It is filed as in vivo, mouse. From the text:
Objective: Glutamatergic hypofunction is one of the pathogenesis for mental disorders such as schizophrenia. N-methyl-D-aspartic acid (NMDA) receptor antagonists can induce schizophrenia-like effects. In this experiment, a hyperlocomotion schizophrenia model in mice induced by dizocilpine (MK-801), a NMDA receptor antagonist, was used to investigate the in vivo activity of the compounds P6, P5, P4 and P7 of the invention.
Methods: SPF grade inbred Balb/c male mice with no special pathogens (purchased from Laboratory Animal Center of Capital Medical University), weighed (20±2) g, were randomly divided into a control group, a model group, and drug groups. The mice were adapted to the rearing environment for one week, and then were intragastrically administered for 3 days, wherein the control group and model group were intragastrically administered with physiological saline, and on Day 4, the mice were administered prior to test, and then were tested for 60 min in an Open-Field Activity Monitoring System. The control group was then intraperitoneally injected with physiological saline, the model group and the drug groups were intraperitoneally injected with a solution (0.6 mg/kg) of a NMDA receptor antagonist dizocilpine (MK-801), and the mice of these groups were further monitored for spontaneous activity and center square activity within 210 minutes, wherein spontaneous activity was used to reflect the positive symptom of rapid motion in schizophrenia, and center square activity was used to evaluate the anxiety status of schizophrenia.

The test system of assay [3] is myelin basic protein (MBP) in the frontal cortex of Cuprizone model mice. Description: Demyelination in Cuprizone mouse model: MBP content by Western blot. Type of assay: in vivo. The settings on record: 25 and 50 mg/kg groups, FIG. 9. From the text:
Objectiv: pathological changes in white matter and demyelination are the important pathogenesis for many central nervous system diseases and mental disorders. Cuprizone can cause demyelination and pathological changes in white matter. Myelin basic protein (MBP) is a marker protein for myelination of axons, and is the main component of myelin sheath. In this experiment, Western Blot method was used to study the effects of the compounds of the invention on the MBP content and demyelination in the brain of Cuprizone model mice. Methods: Cuprizone mouse model establishment and administration method were the same as those described in Experimental example 4. After ethological tests were performed, the mice were anaesthetized by intraperitoneal injection of 10% chloral hydrate. The brains were harvested and stored at −80° C. Western blot assay: brain tissue was lysed with lysate to extract protein, and the protein concentration was determined. SDS-PAGE gel electrophoresis was performed, the protein was transferred onto a membrane, and the membrane was blocked. The protein was incubated with an anti-MBP antibody (a primary antibody) overnight at 4° C. in a refrigerator. […] Signal intensity for each protein band was analyzed using FluorChem 8900 gray-scale analysis software.

In assay [4] the test system is Cuprizone model mice. Description: Ethological change in Cuprizone model mice (Y-maze and open-field behavior test). It is filed as in vivo, mouse. As to conditions: intragastrical administration; for number of arm entries in Y-maze, effect in words / spontaneous alternation in Y-maze, effect in words: within 8 min; for number of arm entries in Y-maze, effect in words: FIG. 6; for spontaneous alternation in Y-maze, effect in words: FIG. 7; for total distance of spontaneous activity in open-field test, effect in words: within 10 min, FIG. 8. From the text: Objective: neuroinflammation, pathological changes in white matter, and demyelination are the important pathogenesis for many central nervous system diseases. Cuprizone (dicyclohexanoneoxaly dihydrazone) can cause changes such as inflammation, demyelination, axonal injury, and cognitive function impairment. In this experiment, Y-maze and open-field behavior test were used to study the effects of the compounds of the invention on memory function and motion in a Cuprizone mouse model.
Methods: SPF grade inbred C57BL/6 male mice, weighed (20±2) g, were randomly divided into a control group, a model group, and drug groups. The mice were adapted to the rearing environment for 3 days. Then, the control group was fed with a normal feed, and the other groups were fed with a feed containing 0.2% Cuprizone for model establishment. During model establishment, the mice in each group were intragastrically administered with a corresponding dose of drug, and were reared for 5 weeks. The mice were then subjected to the Y-maze and open field behavior test, wherein the number of arm entries in Y-maze was used to reflect the motion of mice; the spontaneous alternation in Y maze was used to reflect the working memory of mice; and the spontaneous activity in open-field behavior test was used to reflect the motion of mice.

The subject of assay [5] is Iba-1-labeled microglial cells in the brain of Cuprizone model mice. Description: Microglial cell activation in Cuprizone mouse model: Iba-1 immunohistochemical staining. Type of assay: in vivo. As to conditions: 25, 50 mg/kg, FIG. 10. The source says: Objective: microglial activation and neuroinflammation are the important pathogenesis for many central nervous system diseases. Iba-1 could specifically label microglial cells. In this experiment, immunohistochemical method was used to study the effects of the compounds of the invention on Iba-1-labeled microglial cells in the brain of Cuprizone model mice.
Methods: Cuprizone mouse model establishment and administration method were the same as those described in Experimental example 4. After ethological tests were performed, the mice were anaesthetized by intraperitoneal injection of 10% chloral hydrate. After perfusion, brain tissue was taken and fixed with […] paraformaldehyde, and then frozen and sliced. Immunohistochemical staining: the frozen sections were inactivated with 3% H2O2 for 10 min and rinsed with PBS; the tissues were blocked with 10% serum and incubated at 37° C. for 1 h. Serum was washed off and a primary antibody (an anti-Iba-1 antibody) was added dropwise. The resultant mixture was kept at 4° C. overnight. After rinsing with PBST, a biotin-conjugated goat anti-rabbit IgG antibody (a secondary antibody) was added dropwise, and incubated at 37° C. for 2 hrs. After rinsing with PBST, a horseradish peroxidase-conjugated streptavidin (a third antibody) was added dropwise, and incubated at 37° C. for 2 hrs. […] Iba-1 positive cells were observed under microscope, and counted.

dopamine D2 receptor (DRD2), sequence (P14416 whole entry): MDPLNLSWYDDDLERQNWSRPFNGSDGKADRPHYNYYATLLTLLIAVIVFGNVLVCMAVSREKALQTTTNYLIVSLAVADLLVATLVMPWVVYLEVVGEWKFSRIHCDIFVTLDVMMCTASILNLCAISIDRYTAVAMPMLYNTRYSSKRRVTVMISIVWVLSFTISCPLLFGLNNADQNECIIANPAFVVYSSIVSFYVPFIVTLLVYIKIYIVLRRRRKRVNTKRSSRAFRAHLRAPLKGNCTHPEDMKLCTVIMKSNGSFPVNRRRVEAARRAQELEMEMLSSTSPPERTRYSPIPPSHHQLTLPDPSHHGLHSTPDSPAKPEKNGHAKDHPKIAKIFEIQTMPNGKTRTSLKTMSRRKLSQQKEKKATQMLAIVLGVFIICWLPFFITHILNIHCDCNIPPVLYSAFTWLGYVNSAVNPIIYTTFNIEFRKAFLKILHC

By IC50 is commonly meant the concentration needed to halve the response being measured. As to `COc1ccccc1N1CCN(CCCCOc2cc(O)c3c(c2)OC(c2ccc(C)cc2)CC3=O)CC1` (stereo not drawn) [Compound P2, 5-hydroxy-2-(4-methylphenyl)-7-(4-(4-(2-methoxyphenyl)-piperazin-1-yl)-butoxy)-chroman-4-one], in assay [1], the IC50 is 346 nM.
Take `COc1ccc(C2CC(=O)c3c(O)cc(OCCCN4CCC(c5noc6cc(F)ccc56)CC4)cc3O2)cc1` (stereo not drawn) [Compound P7, 5-hydroxy-2-(4-methoxyphenyl)-7-(4-(4-(6-fluoro-benzo[d]isoxazol-3-yl)-piperidin-1-yl)-propoxy)-chroman-4-one]: in assay [1], the IC50 was determined as 116 nM. In addition, in assay [2], the “Distance of central district activity” value was found to be 7913 ± 1666 cm; the Total distance traveled was 37051 ± 4308 cm; the “distance of center square activity, effect in words” value (“distance of center square activity” below) was “could shorten the total distance of spontaneous activity and the distance of center square activity”; the “total distance of spontaneous activity, effect in words” value is recorded as “could shorten the total distance of spontaneous activity”.
Regarding `COc1ccc(C2CC(=O)c3c(O)cc(OCCCCN4CCC(c5noc6cc(F)ccc56)CC4)cc3O2)cc1` (stereo not drawn) [Compound P5, 5-hydroxy-2-(4-methoxyphenyl)-7-(4-(4-(6-fluoro-benzo[d]isoxazol-3-yl)-piperidin-1-yl)-butoxy)-chroman-4-one], the IC50 in assay [1] came out at 51.3 nM. Further, the “MBP content in frontal cortex, effect in words” value in assay [3] is “could significantly enhance the MBP content”. In assay [2], the “Distance of central district activity” value stood at 9211 ± 1845 cm; the Total distance traveled was found to be 30914 ± 3351 cm; the “distance of center square activity” value is “could shorten the total distance of spontaneous activity and the distance of center square activity”; the “total distance of spontaneous activity, effect in words” value was “could shorten the total distance of spontaneous activity”. Moreover, in assay [4], the “number of arm entries in Y-maze, effect in words” value is “could reduce the number of arm entries”; the “spontaneous alternation in Y-maze, effect in words” value is reported as “enhance the spontaneous alternation”; the “total distance of spontaneous activity in open-field test, effect in words” value was “could shorten the total distance of spontaneous activity”.
In the case of `COc1ccc(C2CC(=O)c3c(O)cc(OCCCCN4CCN(c5ccccc5OC)CC4)cc3O2)cc1` (stereo not drawn) [Compound P1, 5-hydroxy-2-(4-methoxyphenyl)-7-(4-(4-(2-methoxyphenyl)-piperazin-1-yl)-butoxy)-chroman-4-one], in assay [1], the IC50 came out at 205 nM.
Regarding `COc1ccc(C2CC(=O)c3c(O)cc(OCCCN4CCN(c5ccccc5OC)CC4)cc3O2)cc1` (stereo not drawn) [Compound P6, 5-hydroxy-2-(4-methoxyphenyl)-7-(4-(4-(2-methoxyphenyl)-piperazin-1-yl)-propoxy)-chroman-4-one], the IC50 in assay [1] is 220 nM. For the same compound, in assay [5], the “number of Iba-1-labeled microglial cells in the brain, effect in words” value is reported as “could significantly reduce the number of microglial cells”. Also, in assay [2], the “Distance of central district activity” value was 10181 ± 2110 cm; the Total distance traveled worked out at 46922 ± 2233 cm; the “distance of center square activity” value is “could shorten the total distance of spontaneous activity and the distance of center square activity”; the “total distance of spontaneous activity, effect in words” value is reported as “could shorten the total distance of spontaneous activity”. For the same compound, in assay [4], the “number of arm entries in Y-maze, effect in words” value is on record as “could reduce the number of arm entries”; the “spontaneous alternation in Y-maze, effect in words” value was “enhance the spontaneous alternation”; the “total distance of spontaneous activity in open-field test, effect in words” value is given as “could shorten the total distance of spontaneous activity”.
As to `COc1ccccc1N1CCN(CCCCOc2cc(O)c3c(c2)OC(c2ccc(F)cc2)CC3=O)CC1` (stereo not drawn) [Compound P3, 5-hydroxy-2-(4-fluorophenyl)-7-(4-(4-(2-methoxyphenyl)-piperazin-1-yl)-butoxy)-chroman-4-one], in assay [1], the IC50 came to 57.3 nM.
With `O=C1CC(c2ccc(F)cc2)Oc2cc(OCCCCN3CCC(c4noc5cc(F)ccc45)CC3)cc(O)c21` (stereo not drawn) [Compound P4, 5-hydroxy-2-(4-fluorophenyl)-7-(4-(4-(6-fluoro-benzo[d]isoxazol-3-yl)-piperidin-1-yI)-butoxy)-chroman-4-one], the IC50 in assay [1] came to 87.7 nM. Moreover, in assay [3], the “MBP content in frontal cortex, effect in words” value is “could significantly enhance the MBP content”. Also, in assay [2], the “Distance of central district activity” value turned out to be 11098 ± 1422 cm and the Total distance traveled was found to be 39222 ± 4300 cm.
